ChEMBL document CHEMBL6092226, “Tilting the Scales toward EGFR Mutant Selectivity: Expanding the Scope of Bivalent "Type V" Kinase Inhibitors” (J Med Chem, 2024)

Key:
BaF3 [1] = assay: cells; conditions: Mus musculus, BaF3, 72 h
BaF3 [2] = assay: cells; conditions: Mus musculus, BaF3, 72 h; remark: listed apart in the source
BaF3 [3] = assay: cells; conditions: Mus musculus, BaF3, 72 h; remark: listed apart in the source
BaF3 [4] = assay type: functional, cell-based; conditions: Mus musculus, BaF3, 72 h
HCC827 = assay: cells; conditions: Homo sapiens, HCC827, 72 h
BaF3 [5] = assay: Antiproliferative activity against mouse BaF3 cells harboring EGFR exon 19del mutant incubated for 72 hrs by MTT assay; assay type: functional, cell-based; conditions: BaF3, 72 h
[6] = biological target: T1, Epidermal growth factor receptor (Homo sapiens, UniProt P00533, C797S/L858R/T790M); design: species or system Sf9
T1 sequence (P00533 25-1210 T790M/C797S/L858R limits assumed): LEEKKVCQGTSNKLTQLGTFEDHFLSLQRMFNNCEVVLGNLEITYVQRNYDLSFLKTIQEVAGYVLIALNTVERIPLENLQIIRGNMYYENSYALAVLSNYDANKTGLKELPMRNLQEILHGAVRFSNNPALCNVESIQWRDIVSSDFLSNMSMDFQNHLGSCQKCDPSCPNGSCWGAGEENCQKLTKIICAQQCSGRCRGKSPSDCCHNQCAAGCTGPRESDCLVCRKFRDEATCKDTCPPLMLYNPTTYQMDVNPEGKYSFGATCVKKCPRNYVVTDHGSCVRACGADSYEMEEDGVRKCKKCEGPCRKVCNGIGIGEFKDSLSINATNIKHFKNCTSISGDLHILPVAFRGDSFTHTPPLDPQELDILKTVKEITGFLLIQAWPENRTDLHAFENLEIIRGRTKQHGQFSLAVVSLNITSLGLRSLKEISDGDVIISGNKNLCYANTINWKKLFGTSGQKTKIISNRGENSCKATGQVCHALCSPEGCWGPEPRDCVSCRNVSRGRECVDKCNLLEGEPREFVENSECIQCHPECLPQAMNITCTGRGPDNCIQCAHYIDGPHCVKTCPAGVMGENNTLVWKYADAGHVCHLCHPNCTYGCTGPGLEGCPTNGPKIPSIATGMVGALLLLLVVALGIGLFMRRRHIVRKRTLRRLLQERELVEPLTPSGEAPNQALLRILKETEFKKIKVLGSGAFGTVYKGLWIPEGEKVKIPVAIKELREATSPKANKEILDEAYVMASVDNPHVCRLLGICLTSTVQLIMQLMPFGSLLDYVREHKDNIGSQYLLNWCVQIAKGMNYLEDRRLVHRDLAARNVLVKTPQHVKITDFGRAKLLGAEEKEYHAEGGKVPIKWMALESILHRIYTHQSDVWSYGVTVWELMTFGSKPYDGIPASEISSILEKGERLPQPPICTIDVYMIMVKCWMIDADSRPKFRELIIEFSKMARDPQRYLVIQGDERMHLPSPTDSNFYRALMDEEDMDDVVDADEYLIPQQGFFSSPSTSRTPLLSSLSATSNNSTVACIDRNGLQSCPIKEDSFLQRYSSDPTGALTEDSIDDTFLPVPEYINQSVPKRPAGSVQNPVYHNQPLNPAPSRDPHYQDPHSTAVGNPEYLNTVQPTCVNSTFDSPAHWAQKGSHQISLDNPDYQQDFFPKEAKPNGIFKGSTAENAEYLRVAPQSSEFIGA

[7] = biological target: T2, Epidermal growth factor receptor (Homo sapiens, UniProt P00533, L858R); assay: Reversible inhibition of EGFR L858R mutant (696 to 1022 residues) (unknown origin) extracted from baculovirus infected Sf9 insect cells in presence of ATP by HTRF assay
T2 sequence (P00533 25-1210 L858R limits assumed): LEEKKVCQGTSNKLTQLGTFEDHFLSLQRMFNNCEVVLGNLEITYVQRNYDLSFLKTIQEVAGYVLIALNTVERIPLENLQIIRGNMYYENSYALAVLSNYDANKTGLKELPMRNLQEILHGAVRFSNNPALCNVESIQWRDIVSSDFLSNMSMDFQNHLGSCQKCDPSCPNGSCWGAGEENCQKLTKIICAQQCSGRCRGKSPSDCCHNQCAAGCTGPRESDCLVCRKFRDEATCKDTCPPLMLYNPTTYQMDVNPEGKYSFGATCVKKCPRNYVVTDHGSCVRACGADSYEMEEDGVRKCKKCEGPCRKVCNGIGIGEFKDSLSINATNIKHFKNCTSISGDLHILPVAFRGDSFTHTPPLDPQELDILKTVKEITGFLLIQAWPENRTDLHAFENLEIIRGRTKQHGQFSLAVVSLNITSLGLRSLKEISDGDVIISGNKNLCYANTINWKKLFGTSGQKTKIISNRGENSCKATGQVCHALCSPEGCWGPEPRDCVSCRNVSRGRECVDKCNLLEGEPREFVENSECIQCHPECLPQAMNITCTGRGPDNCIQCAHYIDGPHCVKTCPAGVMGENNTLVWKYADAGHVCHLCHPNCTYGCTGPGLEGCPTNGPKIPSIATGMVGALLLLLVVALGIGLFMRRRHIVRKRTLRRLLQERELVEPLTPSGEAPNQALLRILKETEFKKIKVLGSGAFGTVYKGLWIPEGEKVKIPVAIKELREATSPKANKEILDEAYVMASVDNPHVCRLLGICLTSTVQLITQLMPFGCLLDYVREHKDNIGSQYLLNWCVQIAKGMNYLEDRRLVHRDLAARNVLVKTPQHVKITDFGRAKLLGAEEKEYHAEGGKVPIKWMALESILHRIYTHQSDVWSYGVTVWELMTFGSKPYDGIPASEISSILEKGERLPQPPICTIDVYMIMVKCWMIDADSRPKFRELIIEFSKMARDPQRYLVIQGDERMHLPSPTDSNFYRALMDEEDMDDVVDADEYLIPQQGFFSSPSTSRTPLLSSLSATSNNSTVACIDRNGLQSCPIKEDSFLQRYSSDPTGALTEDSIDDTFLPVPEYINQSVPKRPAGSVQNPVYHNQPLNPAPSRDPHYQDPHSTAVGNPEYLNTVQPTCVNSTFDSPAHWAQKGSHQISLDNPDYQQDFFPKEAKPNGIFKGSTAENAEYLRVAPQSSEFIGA

[8] = biological target: T3, Epidermal growth factor receptor (Homo sapiens, UniProt P00533, L858R/T790M); assay: Reversible inhibition of EGFR L858R/T790M mutant (696 to 1022 residues) (unknown origin) extracted from baculovirus infected Sf9 insect cells in presence of ATP by HTRF assay
T3 sequence (P00533 25-1210 T790M/L858R limits assumed): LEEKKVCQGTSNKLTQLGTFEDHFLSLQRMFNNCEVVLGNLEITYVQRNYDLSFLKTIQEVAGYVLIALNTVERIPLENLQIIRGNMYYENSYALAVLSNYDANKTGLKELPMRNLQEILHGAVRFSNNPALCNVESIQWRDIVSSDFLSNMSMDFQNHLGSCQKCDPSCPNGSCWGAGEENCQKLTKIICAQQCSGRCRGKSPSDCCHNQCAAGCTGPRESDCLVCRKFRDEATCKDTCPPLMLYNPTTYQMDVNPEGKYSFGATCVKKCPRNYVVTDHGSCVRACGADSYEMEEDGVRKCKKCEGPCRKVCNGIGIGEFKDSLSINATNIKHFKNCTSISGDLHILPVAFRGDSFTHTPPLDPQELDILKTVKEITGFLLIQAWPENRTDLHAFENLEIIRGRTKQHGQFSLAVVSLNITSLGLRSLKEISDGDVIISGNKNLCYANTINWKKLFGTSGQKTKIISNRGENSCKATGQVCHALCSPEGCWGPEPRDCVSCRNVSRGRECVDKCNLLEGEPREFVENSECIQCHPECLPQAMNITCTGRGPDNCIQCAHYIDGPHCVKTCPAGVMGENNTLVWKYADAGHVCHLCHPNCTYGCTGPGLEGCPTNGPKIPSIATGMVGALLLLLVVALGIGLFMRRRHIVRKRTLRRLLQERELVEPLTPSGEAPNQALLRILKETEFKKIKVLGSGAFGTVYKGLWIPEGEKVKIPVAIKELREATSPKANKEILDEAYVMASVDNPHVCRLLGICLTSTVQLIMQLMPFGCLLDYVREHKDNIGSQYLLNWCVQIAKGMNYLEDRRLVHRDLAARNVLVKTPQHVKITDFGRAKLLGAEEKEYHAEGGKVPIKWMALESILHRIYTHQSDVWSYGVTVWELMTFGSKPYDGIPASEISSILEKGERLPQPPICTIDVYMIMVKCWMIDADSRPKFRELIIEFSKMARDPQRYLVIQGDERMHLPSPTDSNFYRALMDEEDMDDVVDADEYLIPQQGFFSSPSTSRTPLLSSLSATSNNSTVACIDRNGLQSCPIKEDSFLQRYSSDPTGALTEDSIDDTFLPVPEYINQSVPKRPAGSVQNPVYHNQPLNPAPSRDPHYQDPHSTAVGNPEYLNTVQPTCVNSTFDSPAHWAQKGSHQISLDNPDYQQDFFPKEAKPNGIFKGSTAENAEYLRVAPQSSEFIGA

[9] = biological target: T4, Epidermal growth factor receptor (Homo sapiens, UniProt P00533); assay: Reversible inhibition of wildtype EGFR (696 to 1022 residues) (unknown origin) extracted from baculovirus infected Sf9 insect cells in presence of ATP by HTRF assay
T4 sequence (P00533 whole entry, the tested form may be a part): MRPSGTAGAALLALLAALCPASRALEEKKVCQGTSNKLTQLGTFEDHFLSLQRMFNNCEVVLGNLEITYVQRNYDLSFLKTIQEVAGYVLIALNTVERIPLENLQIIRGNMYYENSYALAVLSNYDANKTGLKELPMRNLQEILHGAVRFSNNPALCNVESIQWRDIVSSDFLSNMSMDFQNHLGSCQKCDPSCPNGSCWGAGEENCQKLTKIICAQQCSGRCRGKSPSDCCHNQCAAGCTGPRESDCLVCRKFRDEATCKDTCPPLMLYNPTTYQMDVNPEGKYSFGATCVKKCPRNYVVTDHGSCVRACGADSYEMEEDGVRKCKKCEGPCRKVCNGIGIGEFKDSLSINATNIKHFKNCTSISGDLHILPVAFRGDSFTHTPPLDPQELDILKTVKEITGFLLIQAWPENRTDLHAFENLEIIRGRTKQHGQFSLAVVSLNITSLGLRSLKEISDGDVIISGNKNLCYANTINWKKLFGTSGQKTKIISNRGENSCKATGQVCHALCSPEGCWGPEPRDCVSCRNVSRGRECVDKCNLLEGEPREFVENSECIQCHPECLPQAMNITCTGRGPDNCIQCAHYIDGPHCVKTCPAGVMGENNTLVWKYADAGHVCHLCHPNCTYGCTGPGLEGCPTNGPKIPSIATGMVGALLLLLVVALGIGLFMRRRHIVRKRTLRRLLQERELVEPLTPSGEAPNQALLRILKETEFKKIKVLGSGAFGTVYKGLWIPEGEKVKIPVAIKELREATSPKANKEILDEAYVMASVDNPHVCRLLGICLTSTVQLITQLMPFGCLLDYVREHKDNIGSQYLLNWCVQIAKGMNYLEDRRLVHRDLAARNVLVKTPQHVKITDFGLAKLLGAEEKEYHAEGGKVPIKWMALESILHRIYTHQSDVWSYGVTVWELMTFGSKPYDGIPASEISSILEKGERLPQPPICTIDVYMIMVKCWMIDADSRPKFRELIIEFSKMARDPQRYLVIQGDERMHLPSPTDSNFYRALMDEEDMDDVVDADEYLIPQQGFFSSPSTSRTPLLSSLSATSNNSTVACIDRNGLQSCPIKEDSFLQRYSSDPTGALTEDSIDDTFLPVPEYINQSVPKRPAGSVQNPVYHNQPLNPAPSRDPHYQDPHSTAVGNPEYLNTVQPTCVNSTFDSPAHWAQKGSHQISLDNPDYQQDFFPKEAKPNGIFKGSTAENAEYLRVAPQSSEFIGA

cells = conditions: Homo sapiens, NCI-H1975, 72 h
[10] = biological target: T1, Epidermal growth factor receptor; design: species or system Sf9; remark: listed apart in the source
[11] = biological target: T2, Epidermal growth factor receptor; assay: Time-dependent irreversible inhibition of GST-tagged EGFR L858R mutant cytoplasmic domain (669 to 1210 residues) (unknown origin) assessed as apparent inactivation constant (Ki) incubated for 240 mins in presence of ATP by fluorescence based analysis; conditions: read-out: Ki(app)
[12] = biological target: T3, Epidermal growth factor receptor; assay: Time-dependent irreversible inhibition of GST-tagged EGFR L858R/T790M mutant cytoplasmic domain (669 to 1210 residues) (unknown origin) assessed as apparent inactivation constant (Ki) incubated for 240 mins in presence of ATP by fluorescence based analysis; conditions: read-out: Ki(app)
[13] = biological target: T4, Epidermal growth factor receptor; assay: Time-dependent irreversible inhibition of N-terminal GST-tagged wildtype human EGFR cytoplasmic domain (669 to 1210 residues) extracted from Sf21 insect cells assessed as apparent inactivation constant (Ki) incubated for 240 mins in presence of ATP by fluorescence based analysis; conditions: read-out: Ki(app)
[14] = Metabolic stability in pooled male human liver microsomes at 150 uM measured after 2 hrs in presence of NADPH regenerating system by LC-MS analysis; assay type: ADME, Microsome
[15] = Drug metabolism in pooled male human liver microsomes assessed as thioether oxidation mediated metabolite formation at 150 uM measured after 2 hrs by LC-MS analysis; assay type: ADME, Microsome

Compound	EC50 (BaF3 [1]) [µM]	EC50 (BaF3 [2]) [µM]	EC50 (BaF3 [3]) [µM]	EC50 (BaF3 [5]) [µM]	EC50 (BaF3 [4]) [µM]	other results
CCOc1nc(-c2cccc(NC(=O)c3cccc(O)c3CN3Cc4ccccc4C3=O)c2)c(-c2ccnc(NC(C)=O)c2)[nH]1	> 10	> 10	> 10	> 10	–	–
CSc1nc(-c2cccc(NC(=O)c3ccccc3CN3Cc4ccccc4C3=O)c2)c(-c2ccnc(NC(C)=O)c2)[nH]1	–	–	–	–	–	IC50 [6]: 0.45 µM; IC50 [7]: 0.12 µM; IC50 [8]: 0.46 µM; IC50 [9]: > 1 µM
CS(=O)(=O)CCNCc1ccc(-c2ccc3ncnc(Nc4ccc(OCc5cccc(F)c5)c(Cl)c4)c3c2)o1 [LAPATINIB]	–	–	–	–	–	EC50 (HCC827): > 10 µM; EC50 (cells): > 10 µM
C=CC(=O)Nc1ccc(OC)c(Nc2cc(-c3[nH]c(SC)nc3-c3cccc(NC(=O)c4c(F)ccc(O)c4CN4Cc5ccccc5C4=O)c3)ccn2)c1	0.37	1.2	1.1	1.4	> 10	IC50 [10]: 0.0016 µM
C=CC(=O)Nc1ccc(OC)c(Nc2cc(-c3[nH]c(SC)nc3-c3cccc(NC(=O)c4ccccc4CN4Cc5ccccc5C4=O)c3)ccn2)c1	0.17	0.88	1.7	1.4	> 10	Ki [11]: 0.234 µM; Ki [12]: 0.31 µM; IC50 [10]: > 1 µM; Ki [13]: 0.814 µM
C=CC(=O)Nc1ccc(OC)c(Nc2cc(-c3[nH]c(SC)nc3-c3cccc(NC(=O)c4c(F)cccc4CN4Cc5ccccc5C4=O)c3)ccn2)c1	0.18	1.1	0.72	0.53	> 10	IC50 [10]: 0.34 µM
C=CC(=O)Nc1ccc(OC)c(Nc2cc(-c3[nH]c(CC)nc3-c3cccc(NC(=O)c4cccc(O)c4CN4Cc5ccccc5C4=O)c3)ccn2)c1	0.22	0.59	1	1.5	2.1	EC50 (HCC827): 0.29 µM; Stability [14]: Stable; EC50 (cells): 0.3 µM; Drug metabolism [15]: metabolite_notdetected; IC50 [10]: 0.00091 µM

Second part, led by results:

EC50 (BaF3 [1]) [µM]	EC50 (BaF3 [2]) [µM]	EC50 (BaF3 [3]) [µM]	EC50 (BaF3 [5]) [µM]	Compound	EC50 (BaF3 [4]) [µM]	other results
3.9	> 10	> 10	–	CCc1nc(-c2cccc(NC(=O)c3cccc(O)c3CN3Cc4ccccc4C3=O)c2)c(-c2ccnc(Nc3ccccc3)c2)[nH]1	> 10	–
1	> 10	1.1	1.8	CCC(=O)Nc1ccc(OC)c(Nc2cc(-c3[nH]c(SC)nc3-c3cccc(NC(=O)c4cccc(O)c4CN4Cc5ccccc5C4=O)c3)ccn2)c1	1.7	EC50 (HCC827): 0.27 µM
> 10	> 10	> 10	> 10	CSc1nc(-c2cccc(NC(=O)c3cccc(O)c3CN3Cc4ccccc4C3=O)c2)c(-c2ccnc(NC(C)=O)c2)[nH]1	–	–
2.9	> 10	> 10	> 10	CCOc1nc(-c2cccc(NC(=O)c3cccc(O)c3CN3Cc4ccccc4C3=O)c2)c(-c2ccnc(Nc3ccccc3)c2)[nH]1	–	–
> 10	> 10	> 10	> 10	CSc1nc(-c2cccc(NC(=O)c3cccc(O)c3CN3Cc4ccccc4C3=O)c2)c(-c2ccnc(Nc3ccc(N4CCNCC4)cc3)c2)[nH]1	> 10	–
> 10	> 10	> 10	> 10	CCc1nc(-c2cccc(NC(=O)c3cccc(O)c3CN3Cc4ccccc4C3=O)c2)c(-c2ccnc(NC(C)=O)c2)[nH]1	–	–
> 10	> 10	> 10	4	CSc1nc(-c2cccc(NC(=O)c3cccc(O)c3CN3Cc4ccccc4C3=O)c2)c(-c2ccnc(Nc3ccccc3)c2)[nH]1	–	–
